# Experimental data reported in patent US10683269B2 (MISSION THERAPEUTICS LIMITED, priority 2016, dated 2020).
# Biological target: T1, USP7 (Homo sapiens, UniProt Q93009)
# T1 construct: The USP7 construct was PCR amplified and cloned into a pFLAG-CMV-6a vector (Sigma-Aldrich) with an N-terminal FLAG tag; made in house; host or cells: HEK293T
# Experiment: USP7 biochemical IC50 assay (fluorescence polarisation, TAMRA labelled peptide linked to ubiquitin via an iso-peptide bond)
# Conditions: 30 min pre-incubation of enzyme and compound, read after 2 hr incubation at room temperature, read-out: IC50 range
# In short: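 Fluorescence polarisation at 540 nm excitation/590 nm emission, read immediately and after 2 hr at room temperature, following addition of 50 nM TAMRA-labelled iso-peptide ubiquitin substrate.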
# T1 sequence (Q93009 whole entry): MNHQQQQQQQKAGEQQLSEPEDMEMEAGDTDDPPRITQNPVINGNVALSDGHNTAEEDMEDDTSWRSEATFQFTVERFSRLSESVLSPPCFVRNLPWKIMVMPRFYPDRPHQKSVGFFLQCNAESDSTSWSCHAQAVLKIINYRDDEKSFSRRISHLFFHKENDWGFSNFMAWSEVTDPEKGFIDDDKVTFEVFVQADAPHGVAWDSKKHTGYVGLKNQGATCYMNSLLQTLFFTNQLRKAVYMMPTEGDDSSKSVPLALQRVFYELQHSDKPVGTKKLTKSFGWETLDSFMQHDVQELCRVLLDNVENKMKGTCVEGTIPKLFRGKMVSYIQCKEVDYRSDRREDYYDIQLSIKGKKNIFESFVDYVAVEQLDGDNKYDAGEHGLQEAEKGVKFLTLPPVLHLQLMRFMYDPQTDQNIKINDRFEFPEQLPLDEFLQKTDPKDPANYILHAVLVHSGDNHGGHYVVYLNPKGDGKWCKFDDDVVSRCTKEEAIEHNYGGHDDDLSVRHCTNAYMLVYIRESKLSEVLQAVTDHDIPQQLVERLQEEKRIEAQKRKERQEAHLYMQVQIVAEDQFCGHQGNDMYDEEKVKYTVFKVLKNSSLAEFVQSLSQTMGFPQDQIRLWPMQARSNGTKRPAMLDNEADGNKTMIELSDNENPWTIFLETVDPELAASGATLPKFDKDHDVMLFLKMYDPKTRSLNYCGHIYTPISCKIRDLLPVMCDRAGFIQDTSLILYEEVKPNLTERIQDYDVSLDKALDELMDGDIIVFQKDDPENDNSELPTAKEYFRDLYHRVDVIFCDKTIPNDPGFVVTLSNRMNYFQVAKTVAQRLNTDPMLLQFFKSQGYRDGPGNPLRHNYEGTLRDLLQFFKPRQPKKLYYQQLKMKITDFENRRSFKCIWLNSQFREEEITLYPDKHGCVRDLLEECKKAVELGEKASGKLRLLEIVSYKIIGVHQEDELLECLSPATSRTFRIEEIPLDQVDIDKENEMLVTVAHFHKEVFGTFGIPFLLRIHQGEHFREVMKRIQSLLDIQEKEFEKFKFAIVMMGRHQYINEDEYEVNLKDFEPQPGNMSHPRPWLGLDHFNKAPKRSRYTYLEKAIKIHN
row,SMILES,IC50 [µM]
1,"N#Cc1ccc(N2CCOC2=O)cc1-c1cccc2c1CN(C#N)C2 [Example 298, 4-(2-cyano-5-(2-oxooxazolidin-3-yl)phenyl)isoindoline-2-carbonitrile]",1 to 10
2,"N#Cc1ccc(N2CCCC2=O)cc1-c1cccc2c1CN(C#N)C2 [Example 299, 4-(2-cyano-5-(2-oxopyrrolidin-1-yl)phenyl)isoindoline-2-carbonitrile]",1 to 10

# The remaining lines, values ahead:
row,IC50 [µM],SMILES
1,1 to 10,"N#Cc1cc2c(c(-c3ccc(F)cc3C(N)=O)c1)CN(C#N)C2 [Example 296, 2-(2,6-dicyanoisoindolin-4-yl)-5-fluorobenzamide]"
2,1 to 10,"N#Cc1cc(F)c(-c2cc(C#N)cc3c2CN(C#N)C3)c(C(N)=O)c1 [Example 297, 5-cyano-2-(2,6-dicyanoisoindolin-4-yl)-3-fluorobenzamide]"
3,1 to 10,"N#CN1Cc2ncnc(-c3cccc(N4CCNC4=O)c3)c2C1 [Example 300, 4-(3-(2-oxoimidazolidin-1-yl)phenyl)-5,7-dihydro-6H-pyrrolo[3,4-c]pyrimidine-6-carbonitrile]"
4,1 to 10,"N#Cc1cc(F)c(-c2cccc3c2CN(C#N)C3)c(C(N)=O)c1 [Example 301, 5-cyano-2-(2-cyanoisoindolin-4-yl)-3-fluorobenzamide]"
